Blank lines part the entries; values can stand above or below the compound they belong to. Active and inactive are the calls of the source.
Assays:
[1] = biological target: T1, Oxysterols receptor LXR-beta (Homo sapiens, UniProt P55055); format: functional, cell-based;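 also: Cell-based luminescence dose-response assay of agonist activity at LXR, run as a confirmatory counterscreen to a daf-12 agonist screen; HEK293 cells with Gal4-LXR fusion and GAL4-driven luciferase reporter; agonist potency from rising luciferase signal of a Gal4-LXR reporter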
T1 sequence (P55055 whole entry): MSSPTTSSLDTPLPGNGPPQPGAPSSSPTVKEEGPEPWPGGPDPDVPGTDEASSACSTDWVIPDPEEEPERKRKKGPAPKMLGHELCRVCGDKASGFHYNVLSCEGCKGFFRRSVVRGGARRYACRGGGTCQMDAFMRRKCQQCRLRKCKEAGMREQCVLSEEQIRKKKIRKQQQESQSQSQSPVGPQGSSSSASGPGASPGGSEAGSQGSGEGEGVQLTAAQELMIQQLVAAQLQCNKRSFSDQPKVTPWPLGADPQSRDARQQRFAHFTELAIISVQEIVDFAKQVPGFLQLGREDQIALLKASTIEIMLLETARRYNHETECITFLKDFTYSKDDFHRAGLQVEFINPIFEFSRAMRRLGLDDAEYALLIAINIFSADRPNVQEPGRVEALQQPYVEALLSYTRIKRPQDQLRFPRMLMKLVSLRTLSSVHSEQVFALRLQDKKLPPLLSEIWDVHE

[2] = cells
[3] = system: Vero; experiment: viability of Vero cells under compound – cytotoxicity control for flavivirus capping enzyme inhibitors (AID 588742); format: functional; conditions: Chlorocebus sabaeus
[4] = biological target: T2, Short transient receptor potential channel 4 (Mus musculus, UniProt Q9QUQ5); experiment: block of DAMGO-driven TRPC4 calcium entry – cell-based, HEK293 TRPC4/mu-opioid, Fluo-4 calcium, dose response (AID 434942); format: functional;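 also: potency of inhibitors blocking the TRPC4 calcium response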
T2 sequence (Q9QUQ5 whole entry): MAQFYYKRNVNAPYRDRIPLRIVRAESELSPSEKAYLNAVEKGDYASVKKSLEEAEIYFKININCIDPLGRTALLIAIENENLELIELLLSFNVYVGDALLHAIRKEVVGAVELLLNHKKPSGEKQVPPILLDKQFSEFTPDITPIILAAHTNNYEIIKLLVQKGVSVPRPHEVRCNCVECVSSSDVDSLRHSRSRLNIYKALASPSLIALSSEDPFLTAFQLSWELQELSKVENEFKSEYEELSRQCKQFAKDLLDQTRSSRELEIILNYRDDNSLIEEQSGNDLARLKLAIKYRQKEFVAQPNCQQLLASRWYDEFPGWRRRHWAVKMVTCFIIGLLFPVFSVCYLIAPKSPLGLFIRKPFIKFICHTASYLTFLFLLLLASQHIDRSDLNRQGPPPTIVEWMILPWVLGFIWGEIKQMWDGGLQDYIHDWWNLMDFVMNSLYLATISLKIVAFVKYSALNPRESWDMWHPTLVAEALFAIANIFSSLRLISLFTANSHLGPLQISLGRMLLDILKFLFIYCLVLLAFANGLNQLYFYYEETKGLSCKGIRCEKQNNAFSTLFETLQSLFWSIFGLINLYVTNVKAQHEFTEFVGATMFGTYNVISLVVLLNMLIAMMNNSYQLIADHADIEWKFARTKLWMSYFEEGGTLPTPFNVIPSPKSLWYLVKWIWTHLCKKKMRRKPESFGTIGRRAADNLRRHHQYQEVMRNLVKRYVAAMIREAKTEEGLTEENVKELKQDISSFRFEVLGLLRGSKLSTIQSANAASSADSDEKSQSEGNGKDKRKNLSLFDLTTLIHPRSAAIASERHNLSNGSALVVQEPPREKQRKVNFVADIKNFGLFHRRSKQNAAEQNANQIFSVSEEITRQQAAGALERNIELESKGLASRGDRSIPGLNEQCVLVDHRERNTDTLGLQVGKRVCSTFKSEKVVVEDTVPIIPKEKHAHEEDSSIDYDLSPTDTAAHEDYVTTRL

[5] = biological target: T3, Corticotropin-releasing factor receptor 2/Corticotropin-releasing factor-binding protein (Homo sapiens, UniProt P24387+Q13324); experiment: Dose Response confirmation of uHTS hits for small molecule antagonists of the CRF-binding protein and CRF-R2 receptor complex.; format: functional; conditions: read-out: IC50_Mean
T3 sequence (Q13324 whole entry): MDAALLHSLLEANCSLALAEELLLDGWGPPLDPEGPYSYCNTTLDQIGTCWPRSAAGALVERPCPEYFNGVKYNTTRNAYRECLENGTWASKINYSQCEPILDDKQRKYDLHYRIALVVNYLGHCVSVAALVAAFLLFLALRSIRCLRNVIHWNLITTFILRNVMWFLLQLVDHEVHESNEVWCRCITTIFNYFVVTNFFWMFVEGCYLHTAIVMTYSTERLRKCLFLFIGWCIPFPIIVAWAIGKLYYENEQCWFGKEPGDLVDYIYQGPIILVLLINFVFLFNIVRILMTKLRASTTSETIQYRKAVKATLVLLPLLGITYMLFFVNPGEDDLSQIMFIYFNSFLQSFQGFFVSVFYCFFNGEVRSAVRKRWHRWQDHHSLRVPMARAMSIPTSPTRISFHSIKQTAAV
T3 sequence (P24387 whole entry): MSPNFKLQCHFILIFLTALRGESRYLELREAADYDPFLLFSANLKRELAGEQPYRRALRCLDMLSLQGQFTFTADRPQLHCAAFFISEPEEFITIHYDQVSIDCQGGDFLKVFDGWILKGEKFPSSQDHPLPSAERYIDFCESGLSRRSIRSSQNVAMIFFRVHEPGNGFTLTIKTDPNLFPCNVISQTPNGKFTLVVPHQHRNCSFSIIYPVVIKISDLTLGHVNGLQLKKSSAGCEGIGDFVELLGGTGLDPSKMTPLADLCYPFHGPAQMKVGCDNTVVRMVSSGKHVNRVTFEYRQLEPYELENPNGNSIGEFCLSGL

[6] = biological target: T3, Corticotropin-releasing factor receptor 2/Corticotropin-releasing factor-binding protein; experiment: activators of CRF receptor 2 with binding protein – uHTS hits, confirmation (AID 602473); format: functional; conditions: read-out: EC50_Mean
[7] = blockers of CRF-binding protein–CRF-R2 complex – cell-based, uHTS hits, 384-well, dose response (AID 651639); format: functional, Homo sapiens; conditions: read-out: IC50_Mean
[8] = biological target: T4, Aminopeptidase N (Plasmodium falciparum FcB1/Columbia, UniProt O96935); experiment: malaria alanyl aminopeptidase activity blockers – biochemical, fluorogenic H-Leu-NHMec substrate, 1536-well (AID 1445); parameters: species or system Plasmodium falciparum 3D7, 3D7
T4 sequence (O96935 whole entry): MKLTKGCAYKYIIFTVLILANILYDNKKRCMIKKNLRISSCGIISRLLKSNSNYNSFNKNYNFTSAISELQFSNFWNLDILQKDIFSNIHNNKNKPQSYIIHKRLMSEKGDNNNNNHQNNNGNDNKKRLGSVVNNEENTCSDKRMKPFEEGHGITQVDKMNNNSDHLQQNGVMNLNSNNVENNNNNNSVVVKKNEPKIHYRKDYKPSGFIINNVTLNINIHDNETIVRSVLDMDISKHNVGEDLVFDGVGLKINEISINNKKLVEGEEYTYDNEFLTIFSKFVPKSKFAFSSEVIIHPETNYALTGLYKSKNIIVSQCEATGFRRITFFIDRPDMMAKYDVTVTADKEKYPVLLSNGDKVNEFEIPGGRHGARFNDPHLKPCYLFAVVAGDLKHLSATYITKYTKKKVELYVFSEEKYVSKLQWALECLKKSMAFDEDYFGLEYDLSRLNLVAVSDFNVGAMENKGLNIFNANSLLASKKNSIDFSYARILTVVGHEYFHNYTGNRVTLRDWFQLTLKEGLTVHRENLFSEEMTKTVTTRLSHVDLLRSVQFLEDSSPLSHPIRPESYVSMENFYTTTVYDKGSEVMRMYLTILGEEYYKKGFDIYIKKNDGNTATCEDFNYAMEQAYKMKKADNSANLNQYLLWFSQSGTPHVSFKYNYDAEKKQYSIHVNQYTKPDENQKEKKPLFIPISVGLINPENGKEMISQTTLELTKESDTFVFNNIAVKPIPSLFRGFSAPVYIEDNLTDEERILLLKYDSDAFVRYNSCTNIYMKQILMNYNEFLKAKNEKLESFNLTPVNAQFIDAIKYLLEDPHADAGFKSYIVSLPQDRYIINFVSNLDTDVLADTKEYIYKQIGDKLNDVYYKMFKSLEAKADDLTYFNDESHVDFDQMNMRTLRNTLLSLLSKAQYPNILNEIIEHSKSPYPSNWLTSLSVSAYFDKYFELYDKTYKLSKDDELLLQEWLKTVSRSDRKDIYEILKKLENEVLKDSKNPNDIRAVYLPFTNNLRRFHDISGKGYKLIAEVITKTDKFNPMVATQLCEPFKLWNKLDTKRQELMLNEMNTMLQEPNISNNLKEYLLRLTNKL

[9] = biological target: Genome polyprotein (dengue virus type 2, UniProt P29990); experiment: flavivirus cap methylation enzyme inhibition – biochemical, confirmation dose response, primary screen (AID 588689); format: functional
Sequence of Genome polyprotein (P29990 2492-3391 limits assumed): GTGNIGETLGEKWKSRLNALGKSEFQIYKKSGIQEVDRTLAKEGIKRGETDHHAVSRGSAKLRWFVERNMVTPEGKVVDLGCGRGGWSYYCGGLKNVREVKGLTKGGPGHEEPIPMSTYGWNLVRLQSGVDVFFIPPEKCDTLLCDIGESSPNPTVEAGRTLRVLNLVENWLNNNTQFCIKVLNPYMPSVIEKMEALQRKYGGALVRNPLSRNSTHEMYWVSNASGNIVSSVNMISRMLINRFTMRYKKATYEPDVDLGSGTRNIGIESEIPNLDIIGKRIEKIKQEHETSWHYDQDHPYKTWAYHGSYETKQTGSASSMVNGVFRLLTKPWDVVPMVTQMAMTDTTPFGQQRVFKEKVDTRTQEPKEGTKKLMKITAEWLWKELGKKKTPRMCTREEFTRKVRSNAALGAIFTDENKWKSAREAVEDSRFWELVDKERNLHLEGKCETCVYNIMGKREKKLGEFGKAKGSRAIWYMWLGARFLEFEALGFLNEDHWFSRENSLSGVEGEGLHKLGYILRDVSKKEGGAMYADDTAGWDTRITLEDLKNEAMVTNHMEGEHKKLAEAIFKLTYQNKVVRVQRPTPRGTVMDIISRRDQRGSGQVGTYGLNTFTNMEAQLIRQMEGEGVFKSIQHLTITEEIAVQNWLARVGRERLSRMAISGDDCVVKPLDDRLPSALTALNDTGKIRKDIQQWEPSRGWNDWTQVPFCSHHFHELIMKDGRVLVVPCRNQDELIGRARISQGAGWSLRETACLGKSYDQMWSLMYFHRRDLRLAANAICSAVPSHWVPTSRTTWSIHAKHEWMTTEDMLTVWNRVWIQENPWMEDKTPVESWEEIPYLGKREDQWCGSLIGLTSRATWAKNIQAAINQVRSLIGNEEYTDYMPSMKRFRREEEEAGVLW

[10] = biological target: Potassium channel subfamily K member 9 (Homo sapiens, UniProt Q9NPC2); experiment: KCNK9 flux blockade, concentration-response – cell-based, FluxOR thallium flux, selectivity assay for TASK1 inhibitor project, SAR follow-up (AID 652211); format: functional;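 also: potency is for inhibitors of the channel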
Sequence of Potassium channel subfamily K member 9 (Q9NPC2 whole entry): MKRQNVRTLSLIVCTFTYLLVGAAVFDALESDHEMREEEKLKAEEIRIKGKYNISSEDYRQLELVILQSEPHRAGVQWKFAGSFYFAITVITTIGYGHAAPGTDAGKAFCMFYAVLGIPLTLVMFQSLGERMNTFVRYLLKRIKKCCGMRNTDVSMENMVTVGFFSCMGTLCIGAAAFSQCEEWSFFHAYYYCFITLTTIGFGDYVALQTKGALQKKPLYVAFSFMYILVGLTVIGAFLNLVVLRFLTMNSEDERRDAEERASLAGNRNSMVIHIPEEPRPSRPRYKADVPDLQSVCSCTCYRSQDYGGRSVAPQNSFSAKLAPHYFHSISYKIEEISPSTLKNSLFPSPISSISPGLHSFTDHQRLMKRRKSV

[11] = viability loss in HEK293 cells – cell-based, plate reader, cherry-picked samples, cytotoxicity control, dose response (AID 743446); format: functional
[12] = blockade of melanocortin 4 receptor signaling – cell-based, plate reader, cherry pick, counter-screen for LGR2 antagonist project, dose response (AID 743444); format: functional;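 also: transfected HEK 293 cells stimulated with alpha-MSH peptide; potency of inhibitors of the alpha-MSH evoked signal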
[13] = toxicity toward HepG2 liver cells – cell-based, plate reader, cherry-pick, antagonist series, cytotoxicity control, dose response (AID 743416); format: functional
[14] = A549 cell cytotoxicity, dose response, cytotoxicity control, plate reader, cherry-pick, antagonist series (AID 743412); format: functional, cell-based
[15] = blockers of bursicon-stimulated LGR2 cAMP reporter – cell-based, HEK293, CRE-luciferase reporter, cherry pick, set 2, dose response (AID 743343); format: functional;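 also: transfected cells were stimulated with diluted bursicon conditioned medium after compound addition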
[16] = biological target: T5, Protein Tat (Human immunodeficiency virus type 1 group M subtype B (isolate HXB2)(HIV-1), UniProt P04608); format: functional;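 also: tat binding to TAR RNA read out by fluorescence polarization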
T5 sequence (P04608 whole entry): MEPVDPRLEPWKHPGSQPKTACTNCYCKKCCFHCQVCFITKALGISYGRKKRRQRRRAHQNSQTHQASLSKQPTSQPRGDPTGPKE

[17] = biological target: T6, ATP-dependent translocase ABCB1 (Homo sapiens, UniProt P08183); experiment: P-gp JC-1 efflux blockade concentration-response – Jurkat-DNR cells, flow cytometry, set 2, dose response (AID 504569); format: functional; conditions: read-out: EC50_MICROM_;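 also: potency of pump inhibitors that raise cellular JC-1 green fluorescence up to the nicardipine level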
T6 sequence (P08183 whole entry): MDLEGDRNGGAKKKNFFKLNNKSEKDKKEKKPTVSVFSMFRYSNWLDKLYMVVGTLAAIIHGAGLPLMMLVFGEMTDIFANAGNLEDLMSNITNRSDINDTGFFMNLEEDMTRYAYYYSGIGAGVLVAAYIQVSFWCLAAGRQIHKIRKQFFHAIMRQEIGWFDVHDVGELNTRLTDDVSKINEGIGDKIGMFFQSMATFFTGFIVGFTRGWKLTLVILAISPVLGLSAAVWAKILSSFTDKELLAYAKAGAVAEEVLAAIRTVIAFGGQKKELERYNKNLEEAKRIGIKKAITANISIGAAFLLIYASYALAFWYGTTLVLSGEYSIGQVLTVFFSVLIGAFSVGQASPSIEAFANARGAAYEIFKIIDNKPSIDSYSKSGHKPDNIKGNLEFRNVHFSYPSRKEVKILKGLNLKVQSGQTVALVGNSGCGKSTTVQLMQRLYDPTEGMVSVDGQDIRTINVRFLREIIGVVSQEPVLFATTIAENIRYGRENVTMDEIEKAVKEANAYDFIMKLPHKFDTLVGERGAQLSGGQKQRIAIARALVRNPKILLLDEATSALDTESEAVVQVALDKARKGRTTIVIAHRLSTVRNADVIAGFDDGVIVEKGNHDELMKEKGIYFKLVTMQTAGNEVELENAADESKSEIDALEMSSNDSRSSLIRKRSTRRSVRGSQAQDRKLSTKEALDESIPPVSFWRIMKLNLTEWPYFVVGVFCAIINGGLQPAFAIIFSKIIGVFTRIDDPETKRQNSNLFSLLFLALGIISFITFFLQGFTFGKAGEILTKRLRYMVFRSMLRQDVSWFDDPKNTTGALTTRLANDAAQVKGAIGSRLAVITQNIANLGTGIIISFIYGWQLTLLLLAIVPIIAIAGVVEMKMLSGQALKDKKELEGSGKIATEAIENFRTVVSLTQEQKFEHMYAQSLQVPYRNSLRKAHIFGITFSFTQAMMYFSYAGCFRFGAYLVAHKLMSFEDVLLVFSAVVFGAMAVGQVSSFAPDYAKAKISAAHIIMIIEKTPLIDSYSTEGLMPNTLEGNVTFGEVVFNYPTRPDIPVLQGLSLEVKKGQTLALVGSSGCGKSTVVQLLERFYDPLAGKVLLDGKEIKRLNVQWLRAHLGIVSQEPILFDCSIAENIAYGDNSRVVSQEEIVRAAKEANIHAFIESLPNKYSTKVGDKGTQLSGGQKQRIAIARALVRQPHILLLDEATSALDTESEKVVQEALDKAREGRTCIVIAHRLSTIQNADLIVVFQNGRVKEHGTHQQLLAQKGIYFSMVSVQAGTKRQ

[18] = biological target: T6, ATP-dependent translocase ABCB1; experiment: inhibition of BCRP-mediated JC-1 efflux – Ig-MXP3 cells, flow cytometry, set 2, dose response (AID 504566); format: functional; conditions: read-out: EC50_MICROM_;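 also: flow cytometry median green fluorescence of retained JC-1 dye; potency of efflux pump inhibition measured as rising substrate retention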

Compound: Brc1ccccc1C1NC(c2ccccc2)=NO1 (stereo not given)
EC50 [1]: > 67.5 µM (inactive)
EC50 [2]: > 67.5 µM (inactive)

EC50 [4]: 6.68 µM (active)
IC50 [5]: 12.6 µM (active)
EC50 [6]: > 53 µM (inactive)
IC50 [7]: 10.4 µM (active)
IC50 [8]: 33.1 µM (active)
IC50 [9]: 37.4 µM (active)
Compound: COc1cc(/C=C2\SC(=S)N(NS(=O)(=O)c3ccc(C)cc3)C2=O)cc(OC)c1OC
CC50 [3]: > 40 µM (active)

IC50 [10]: 3.49 µM (active)
Compound: COc1ccccc1C(=O)Nc1cccc(NC(=O)c2ccccc2C)c1

Compound: Cc1cc2ncc(-c3cccs3)nc2cc1C
AC50 [11]: 49.4 µM (active)
AC50 [12]: 4.22 µM (active)
AC50 [13]: > 52 µM (inactive)
EC50 [1]: > 67.6 µM (inactive)
EC50 [2]: > 67.6 µM (inactive)
AC50 [14]: 25.7 µM (active)
AC50 [15]: 4.64 µM (active)

IC50 [16]: > 100 µM (active)
Compound: O=c1cc(O)n(-c2ccc(F)cc2)c(=S)[nH]1

EC50 [17]: 7.87 µM (active)
EC50 [18]: 3.41 µM (active)
Compound: Cc1nc2cc(-c3cccc(Cl)c3)nn2c(N2CCN(C(=O)c3ccco3)CC2)c1C
